Among the data in paper PMC8286840, “Identifying SARS-CoV-2 antiviral compounds by screening for small molecule inhibitors of Nsp3 papain-like protease” (Biochemical Journal, 2021) are remaining activity values, retold here.

The structures appear in SMILES notation. Where two headings read alike, the source gives them in different places.

In experiment [1] the target is T1, SARS-CoV-2 PLpro (nsp3 1564–1878) (Severe acute respiratory syndrome coronavirus 2, UniProt P0DTD1). The experiment can be described thus: biochemical. As to conditions: read-out: % of control remaining. Details: FRET-quenched peptide (Pro3) cleavage by PLpro, 10 min pre-incubation, slope over 20 min, normalised to no-compound control.
The target in experiment [2] is T1, SARS-CoV-2 PLpro (nsp3 1564–1878). The experiment is described as follows: biochemical. Further details: FRET-quenched peptide (Pro3) cleavage by PLpro, 10 min pre-incubation, slope over 20 min, normalised to no-compound control. As to conditions: read-out: % of control remaining. This is another data set of the same source.

As to `C[N+]1(C)CCC[C@H]1C(=O)[O-]` [Stachydrine], the remaining activity at 1.25 µM is 109% in experiment [1] (Well no.=6917, low concentration screen) and 104% in experiment [1] (Well no.=7414, low concentration screen). The remaining activity at 3.75 µM in experiment [2] (Well no.=6917, high concentration screen) came out at 93.7%; in experiment [2] (Well no.=7414, high concentration screen), 102%.
On to `C[C@]12Cc3c[nH]nc3C[C@@H]1CC[C@@H]1[C@@H]2CC[C@@]2(C)[C@H]1CC[C@]2(C)O` [Stanozolol], for which, in experiment [1], the remaining activity at 1.25 µM is 94%. Moreover, the remaining activity at 3.75 µM in experiment [2] was determined as 95.3%.
Turning to `O=[N+]([O-])c1ccc2c(c1)S(=O)(=O)C=C2` [Stattic], the remaining activity at 1.25 µM in experiment [1] (Well no.=4748, low concentration screen) was found to be 104%. In addition, the remaining activity at 3.75 µM in experiment [2] (Well no.=4748, high concentration screen) is 104%.
Take `CN[C@@H]1C[C@H]2O[C@@](C)([C@@H]1OC)n1c3ccccc3c3c4c(c5c6ccccc6n2c5c31)C(=O)NC4` [Staurosporine, Streptomyces sp.]: the remaining activity at 1.25 µM was found to be 94.8% in experiment [1] (Well no.=2656, low concentration screen) and 89.3% in experiment [1] (Well no.=2661, low concentration screen). Moreover, the remaining activity at 3.75 µM is 95% in experiment [2] (Well no.=2656, high concentration screen) and 84.8% in experiment [2] (Well no.=2661, high concentration screen).
Regarding `Cc1cn([C@H]2C=C[C@@H](CO)O2)c(=O)[nH]c1=O` [Stavudine], the remaining activity at 1.25 µM in experiment [1] (Well no.=7916, low concentration screen) was 99.6%. In addition, the remaining activity at 3.75 µM in experiment [2] (Well no.=7916, high concentration screen) came to 96.8%.
`COc1cc2ncnc(Nc3ccc(Cl)cc3Cl)c2cc1OC` [Ste11 MAPKKK Activation Inhibitor]: the remaining activity at 1.25 µM in experiment [1] (Well no.=2673, low concentration screen) was found to be 96.8%. Also, in experiment [2] (Well no.=2673, high concentration screen), the remaining activity at 3.75 µM worked out at 99.8%.
For `CCCCCCCCCCCCCCCCCC(=O)O` [Stearic acid], the remaining activity at 1.25 µM in experiment [1] (Well no.=6963, low concentration screen) was 98.8%. For the same compound, the remaining activity at 3.75 µM in experiment [2] (Well no.=6963, high concentration screen) turned out to be 102%.
For the compound `CC(C)n1cnc2c(NCCc3ccc(O)cc3)nc(-c3csc4ccccc34)nc21` [StemRegenin 1], in experiment [1] (Well no.=4827, low concentration screen), the remaining activity at 1.25 µM was found to be 101%. The remaining activity at 3.75 µM in experiment [2] (Well no.=4827, high concentration screen) is 98.2%.
Turning to `CN[C@@H]1[C@H](O[C@H]2[C@H](O[C@H]3[C@H](O)[C@@H](O)[C@H](N=C(N)N)[C@@H](O)[C@@H]3N=C(N)N)O[C@@H](C)[C@]2(O)C=O)O[C@@H](CO)[C@H](O)[C@H]1O` [Streptomycin], in experiment [1] (Well no.=2285, low concentration screen), the remaining activity at 1.25 µM is 97.7%. For the same compound, the remaining activity at 3.75 µM in experiment [2] (Well no.=2285, high concentration screen) came out at 97.7%.
For the compound `COC1=C(N)C(=O)c2nc(-c3nc(C(=O)O)c(C)c(-c4ccc(OC)c(OC)c4O)c3N)ccc2C1=O` [Streptonigrin], the remaining activity at 1.25 µM in experiment [1] (Well no.=3304, low concentration screen) was found to be 96.9%. Further, the remaining activity at 3.75 µM in experiment [2] (Well no.=3304, high concentration screen) came to 96.9%.
With `CN(N=O)C(=O)N[C@@H](C=O)[C@@H](O)[C@H](O)[C@H](O)CO` [Streptozocin], the remaining activity at 1.25 µM in experiment [1] (Well no.=3317, low concentration screen) was found to be 100%. The remaining activity at 3.75 µM in experiment [2] (Well no.=3317, high concentration screen) worked out at 103%.
For `O=C(O)CCC(=O)O` [Succinic acid], the remaining activity at 1.25 µM in experiment [1] (Well no.=7353, low concentration screen) worked out at 106%. For the same compound, in experiment [2] (Well no.=7353, high concentration screen), the remaining activity at 3.75 µM is 106%.
In the case of `C[N+](C)(C)CCOC(=O)CCC(=O)OCC[N+](C)(C)C` [Succinylcholine chloride], the remaining activity at 1.25 µM in experiment [1] (Well no.=1318, low concentration screen) amounted to 103%; in experiment [1] (Well no.=6064, low concentration screen) it was 99%. Besides, the remaining activity at 3.75 µM in experiment [2] (Well no.=1318, high concentration screen) was determined as 103%; in experiment [2] (Well no.=6064, high concentration screen), 96.6%.
Turning to `C[N+](C)(C)CCOC(=O)CCC(=O)OCC[N+](C)(C)C` [Succinylcholine], the remaining activity at 1.25 µM in experiment [1] (Well no.=2294, low concentration screen) is 90.2%. In experiment [2] (Well no.=2294, high concentration screen), the remaining activity at 3.75 µM stood at 95.9%.
As for `O=C(O)CCC(=O)Nc1ccc(S(=O)(=O)Nc2nccs2)cc1` [Succinylsulfathiazole], the remaining activity at 1.25 µM in experiment [1] (Well no.=8034, low concentration screen) was found to be 89.3%. Besides, the remaining activity at 3.75 µM in experiment [2] (Well no.=8034, high concentration screen) came out at 89.7%.
For `Oc1ccc2ccccc2c1N=Nc1ccc(N=Nc2ccccc2)cc1` [Sudan III], the remaining activity at 1.25 µM in experiment [1] (Well no.=8024, low concentration screen) is 93.7%. In addition, the remaining activity at 3.75 µM in experiment [2] (Well no.=8024, high concentration screen) was 93.4%.
In the case of `Nc1ccc(S(=O)(=O)NC(=O)c2ccccc2)cc1` [Sulfabenzamide], in experiment [1] (Well no.=7306, low concentration screen), the remaining activity at 1.25 µM was determined as 103%. Besides, the remaining activity at 3.75 µM in experiment [2] (Well no.=7306, high concentration screen) is 102%.
Consider `NC(=O)NS(=O)(=O)c1ccc(N)cc1` [Sulfacarbamide], for which the remaining activity at 1.25 µM in experiment [1] (Well no.=7502, low concentration screen) worked out at 96.2%. Also, in experiment [2] (Well no.=7502, high concentration screen), the remaining activity at 3.75 µM stood at 98.8%.
Turning to `CC(=O)NS(=O)(=O)c1ccc(N)cc1` [Sulfacetamide (Sodium)], the remaining activity at 1.25 µM in experiment [1] (Well no.=7510, low concentration screen) was determined as 103%. Also, the remaining activity at 3.75 µM in experiment [2] (Well no.=7510, high concentration screen) is 102%.
As to `CC(=O)NS(=O)(=O)c1ccc(N)cc1` [Sulfacetamide Sodium], in experiment [1] (Well no.=4740, low concentration screen), the remaining activity at 1.25 µM came out at 106%. Further, the remaining activity at 3.75 µM in experiment [2] (Well no.=4740, high concentration screen) turned out to be 106%.
On to `Nc1ccc(S(=O)(=O)Nc2ccc(Cl)nn2)cc1` [Sulfachloropyridazine], for which, in experiment [1] (Well no.=8360, low concentration screen), the remaining activity at 1.25 µM was found to be 93.9%. Further, the remaining activity at 3.75 µM in experiment [2] (Well no.=8360, high concentration screen) was 92.1%.
As for `Nc1ccc(S(=O)(=O)Nc2cncc(Cl)n2)cc1` [Sulfaclozine (sodium)], the remaining activity at 1.25 µM in experiment [1] (Well no.=7458, low concentration screen) is 96.2%. Besides, in experiment [2] (Well no.=7458, high concentration screen), the remaining activity at 3.75 µM is 93.3%.
Take `Nc1ccc(S(=O)(=O)Nc2ncccn2)cc1` [Sulfadiazine]: the remaining activity at 1.25 µM in experiment [1] (Well no.=2289, low concentration screen) was found to be 99.4%; in experiment [1] (Well no.=7494, low concentration screen), 97.4%. Further, the remaining activity at 3.75 µM in experiment [2] (Well no.=2289, high concentration screen) was 102%; in experiment [2] (Well no.=7494, high concentration screen) it was 98.3%.
For the compound `COc1cc(NS(=O)(=O)c2ccc(N)cc2)nc(OC)n1` [Sulfadimethoxine], the remaining activity at 1.25 µM in experiment [1] (Well no.=2291, low concentration screen) was found to be 93.2%; in experiment [1] (Well no.=8358, low concentration screen), 95.1%. Moreover, the remaining activity at 3.75 µM turned out to be 91.8% in experiment [2] (Well no.=2291, high concentration screen) and 95.5% in experiment [2] (Well no.=8358, high concentration screen).
On to `COc1ncnc(NS(=O)(=O)c2ccc(N)cc2)c1OC` [Sulfadoxine], for which the remaining activity at 1.25 µM in experiment [1] (Well no.=2287, low concentration screen) was determined as 97%; in experiment [1] (Well no.=7358, low concentration screen) it was 95.6%. For the same compound, the remaining activity at 3.75 µM was determined as 92.6% in experiment [2] (Well no.=2287, high concentration screen) and 98% in experiment [2] (Well no.=7358, high concentration screen).
As to `N=C(N)NS(=O)(=O)c1ccc(N)cc1` [Sulfaguanidine], in experiment [1] (Well no.=7348, low concentration screen), the remaining activity at 1.25 µM was determined as 93.5%. In addition, in experiment [2] (Well no.=7348, high concentration screen), the remaining activity at 3.75 µM was found to be 93.1%.
For the compound `COc1nccnc1NS(=O)(=O)c1ccc(N)cc1` [Sulfalene], in experiment [1] (Well no.=8228, low concentration screen), the remaining activity at 1.25 µM was 103%. Further, the remaining activity at 3.75 µM in experiment [2] (Well no.=8228, high concentration screen) came out at 85.7%.
For `Cc1ccnc(NS(=O)(=O)c2ccc(N)cc2)n1` [Sulfamerazine], the remaining activity at 1.25 µM in experiment [1] (Well no.=4941, low concentration screen) was 92.6%; in experiment [1] (Well no.=8644, low concentration screen) it was 94.8%. The remaining activity at 3.75 µM in experiment [2] (Well no.=4941, high concentration screen) worked out at 83.3%; in experiment [2] (Well no.=8644, high concentration screen), 92.4%.
Take `COc1cnc(NS(=O)(=O)c2ccc(N)cc2)nc1` [Sulfameter]: the remaining activity at 1.25 µM worked out at 98.3% in experiment [1] (Well no.=7406, low concentration screen) and 91.9% in experiment [1] (Well no.=8236, low concentration screen). Further, the remaining activity at 3.75 µM in experiment [2] (Well no.=7406, high concentration screen) turned out to be 100%; in experiment [2] (Well no.=8236, high concentration screen) it was 88.3%.
